Assays:
[1] = system: As #1989; test: RIA (Assay 2): competition with iodinated inhibin for As #1989; format: binding, rabbit; settings: for As#1989 ED50: biotinylated peptides, 50% fall in binding of iodinated inhibin
From the text: (§1) This assay was used to determine which peptides compete with iodinated 30 kDa inhibin for As #41, #128 and #1989 (used in the original inhibin RIA, Lapphorn et al., 1989, supra) in a RIA format. This assay identifies those peptides that bind to inhibin-binding antibodies in the antiserum and provides a stricter affinity and specificity assessment in identifying the appropriate epitopes than that found with Assay 1. The competition between peptide and hr-inhibin (used as the standard) was assessed from their ED50 values. The RIA consisted of the competition of iodinated inhibin and either hr-inhibin reference preparation, individual peptides or pools from the 4 peptide regions, with As #41, #128 and in some instances, As #1989. The peptides/inhibin/iodinated inhibin and antisera (at a prescribed dilution) were incubated overnight at 4° C. using standard methodologies. The antibody-bound iodinated inhibin was immunoprecipitated with the addition of an anti-sheep IgG serum raised in goats and the radioactivity was measured in a gamma counter. The concentration of peptide that gives a 50% fall in binding of iodinated inhibin (ED50) was determined and this value was used to give a measure of the affinity of the peptide for the antiserum. This methodology consisted of determining the ED50 of the peptide in the RIA using iodinated human recombinant inhibin as tracer with either As #41, As #128 or As #1989 and graded doses of either hr-inhibin or peptide as described in Example 2.

[2] = system: As #128; test: RIA (Assay 2): competition with iodinated inhibin for As #128; format: binding, sheep; settings: for As#128 ED50: biotinylated peptides, 50% fall in binding of iodinated inhibin
From the text: as §1

[3] = system: As #41; test: RIA (Assay 2): competition with iodinated inhibin for As #41; format: binding, sheep; settings: for As#41 ED50: biotinylated peptides, 50% fall in binding of iodinated inhibin
From the text: as §1

[4] = system: As #128; test: Solid phase assay (Assay 1): biotinylated peptides binding to As #128; set-up: species or system sheep; key: +++++ major contribution; + minor contribution; settings: relative contribution
Method: This assay is a broad screen of the binding of the 31 biotinylated peptides to As #41 and #128 as recommended by Chiron Mimotopes.
The biotinylated peptides were initially bound to streptavidin-coated 96-well plates (2 hours at room temperature), antiserum #41 or #128 was then added (2 hours room temperature) to bind to the peptides. Detection of antiserum binding was assessed by a further incubation with an anti-ovine IgG serum labeled with the enzyme, horseradish peroxidase. The enzyme activity was assessed by conversion of a colorless substrate to a colored product that is detected in a spectrophotometer. The enzyme activity measured was proportional to the extent of the binding of the peptides.

[5] = system: As #128; test: Competitive 2-site assay (Assay 3), approach (a); format: binding, sheep; set-up: key: +++++ major contribution; + minor contribution; settings: relative contribution
From the text: This assay was developed to establish the relative importance of the individual peptides and peptide pools (identified as epitopes in Assays 1 and 2) in the sandwich antibody format used in the IFMA with As #128 as capture antibody and As #41 as detection antibody. Two approaches (a and b) were considered, Approach (a) explores the cross-reaction of peptides with inhibin for the immobilized As #128 while Approach (b) assesses their cross-reaction with inhibin for As #41.
Approach (a). The biotinylated peptide pools and/or individual peptides at various concentrations, in combination with a fixed concentration of hr-inhibin, were incubated for 2 hours with As #128-coated plates. The plates were then washed to remove any unbound material. Iodinated As #41 was then added to bind to the bound hr-inhibin, the plates washed and the bound radioactivity was measured in a gamma counter. The counts measured were proportional to the amount of hr-inhibin bound to both antisera. The possibility that a peptide contained two epitopes capable of linking As #128 and #41 was assessed in the absence of added hr-inhibin.

[6] = system: PO#14-R1; test: Cross-reaction of inhibin-related proteins in 14-R1 ELISA; format: binding, mouse; settings: relative to rh inhibin A standard (=100); average of two experiments
Method: (§2) An ELISA system using 96-well microtiter plates was developed consisting of one alpha subunit antibody as coating antibody and an alkaline phosphatase-linked second antibody as label. The alkaline phosphatase activity was amplified using an ELISA amplification kit (Gibco, Life Technologies, Rockville Md., USA). The plate was initially coated with monoclonal antibody at 2 micrograms/well in 0.1 M bicarbonate buffer pH 9.4 overnight at room temperature and blocked with 50 mM TRIS/HCl, 1% bovine serum albumin (BSA) pH 7.4.
(§3) The ELISAs in application to non-serum samples consisted of 100 microliters sample or recombinant human (rh) inhibin A standard (provided by National Institute of Biological Standards and Control, Potters Bar, Herts, UK) in assay buffer (100 mM TRIS/HCl, 154 mM NaCl, 5% Triton-X-100, 10% BSA pH, 7.5) and 100 microliters assay buffer. In the assay of serum, the inhibin A standard (100 microliters) was diluted in assay buffer. Inhibin-free serum (100 microliters) was also added to make a total well volume of 200 microliters. The inhibin-free serum was obtained by incubating serum with an immobilized inhibin alpha subunit antibody. […] Serum samples were initially boiled in the presence of SDS (2% final concentration) and diluted 1:1 with assay buffer before adding 100 microliters to the wells. The inhibin-free serum and the SDS boiling steps were included to offset any potential matrix effects of serum known to affect other inhibin ELISAs although the need for these specific steps had not been assessed.
(§4) The plate was incubated with shaking overnight at room temperature. The wells were washed, and alkaline phosphatase (AP)-linked antibody added, incubated with shaking for 3 hours at room temperature and washed again. The substrate (NADPH, Gibco) was added and the plate incubated for 2 hours with shaking at room temperature. The amplifying enzymes (alcohol dehydrogenase and diaphorase, Gibco) were added and incubated for 5-15 min until appropriate color had developed. The plate was read at 490/630 nm on an ELISA plate reader.
(§5) The specificity of the ELISAs was assessed by determining the cross-reaction of inhibin-related proteins in the various ELISAs.

[7] = system: PO#23-R1; test: Cross-reaction of inhibin-related proteins in 23-R1 ELISA; format: binding, mouse; settings: relative to rh inhibin A standard (=100); average of two experiments
Method: as §2, §3, §4, §5

[8] = system: PO#14 + PO#23-R1; test: Cross-reaction of inhibin-related proteins in 14 + 23-R1 ELISA; format: binding, mouse; settings: relative to rh inhibin A standard (=100); average of two experiments
Method: as §2, §3, §4, §5
As a result of an initial characterization of these ELISAs (see below), a combination of PO#14+PO#23 as coating antibodies and AP linked-R1 antibody as tracer was also assessed and its characteristics are also presented in Table 11 and 12 and FIG. 10c.

[9] = non-biotinylated peptides, hr-inhibin A as standard

Molecule	As#1989 ED50 [1]	As#128 ED50 [2]	As#41 ED50 [3]	also measured
SGSG NCHRVALNISFQEL [Peptide 10]	>2500 nM	>10000 nM	>10000 nM	–
SGSG PLHVRTTSDGGYSF [Peptide 29]	>2500 nM	156 nM	5000 nM	–
SGSG LPVPGAPPTPAQPY [Peptide 21]	>2500 nM	156 nM	1000 nM	–
SGSG SFKYETVPNLLTQH [Peptide 32]	>2500 nM	2500 nM	290 nM	–
Hr-inhibin: human recombinant 30 kDa inhibin A [reference compound]	–	–	–	ED50 values As#1989 [1, 9]: 0.1 nM; ED50 values As#128 [2, 9]: 2 nM; ED50 values As#41 [3, 9]: 2 to 8000 nM
SGSG LHIPPNLSLPVPGA [Peptide 19]	>2500 nM	<10 nM	2100 nM	#128 Antibody screen Assay 1 [4]: +; #128 2-site competitive assay Assay 3 [5]: +
SGSG LQRPPEEPAAHANC [Peptide 7]	>2500 nM	1600 nM	1250 nM	#128 Antibody screen Assay 1 [4]: +; #128 2-site competitive assay Assay 3 [5]: +
SGSG SFIFHYCHGGCGLH [Peptide 16]	>2500 nM	>10000 nM	>10000 nM	–
SGSG ERWIVYPPSFIFHY [Peptide 14]	>2500 nM	>10000 nM	>10000 nM	–
SGSG VALNISFQELGWER [Peptide 11]	>2500 nM	>10000 nM	>10000 nM	–
SGSG PEEPAAHANCHRVA [Peptide 8]	>2500 nM	4800 nM	>10000 nM	–
SGSG AAHANCHRVALNIS [Peptide 9]	>2500 nM	>10000 nM	>10000 nM	–
SGSG HYCHGGCGLHIPPN [Peptide 17]	>2500 nM	10000 nM	1050 nM	–
SGSG ELGWERWIVYPPSF [Peptide 13]	>2500 nM	>10000 nM	>10000 nM	–
SGSG ISFQELGWERWIVY [Peptide 12]	>2500 nM	>10000 nM	>10000 nM	–
SGSG GGCGLHIPPNLSLP [Peptide 18]	>2500 nM	60 nM	1050 nM	#128 Antibody screen Assay 1 [4]: +; #128 2-site competitive assay Assay 3 [5]: +
SGSG VYPPSFIFHYCHGG [Peptide 15]	>2500 nM	>10000 nM	>10000 nM	–
rh-inhibin B: recombinant human inhibin B (protein, UniProt P05111 233-366; P09529 293-407, looked up) Inhibin alpha chain: STPLMSWPWSPSALRLLQRPPEEPAAHANCHRVALNISFQELGWERWIVYPPSFIFHYCHGGCGLHIPPNLSLPVPGAPPTPAQPYSLLPGAQPCCAALPGTMRPLHVRTTSDGGYSFKYETVPNLLTQHCACI Inhibin beta B chain: GLECDGRTNLCCRQQFFIDFRLIGWNDWIIAPTGYYGNYCEGSCPAYLAGVPGSASSFHTAVVNQYRMRGLNPGTVNSCCIPTKLSTMSMLYFDDEYNIVKRDVPNMIVEECGCA	–	–	–	14-R1 ELISA specificity [6]: 320; 23-R1 ELSIA specificity [7]: 253; 14 + 23-R1 ELISA specificity [8]: 138
Pro-(alpha)C: preparation provided as standard in Pro-(alpha)C ELISA by Oxford Bio-innovations Ltd, UK (protein) CQGLELARELVLAKVRALFLDALGPPAVTREGGDPGVRRLPRRHALGGFTHRGSEPEEEEDVSQAILFPATDASCEDKSAARGLAQEAEEGLFRYMFRPSQHTRSRQVTSAQLWFHTGLDRQGTAASNSSEPLLGLLALSPGGPVAVPMSLGHAPPHWAVLHLATSALSLLTHPVLVLLLRCPLCTCSARPEATPFLVAHTRTRPPSGGERARRSTPLMSWPWSPSALRLLQRPPEEPAAHANCHRVALNISFQELGWERWIVYPPSFIFHYCHGGCGLHIPPNLSLPVPGAPPTPAQPYSLLPGAQPCCAALPGTMRPLHVRTTSDGGYSFKYETVPNLLTQHCACI	–	–	–	14-R1 ELISA specificity [6]: 98.5; 23-R1 ELSIA specificity [7]: 41.5; 14 + 23-R1 ELISA specificity [8]: 38.5
rh-activin A: recombinant human activin A (protein, UniProt P08476 311-426, looked up) Inhibin beta A chain: GLECDGKVNICCKKQFFVSFKDIGWNDWIIAPSGYHANYCEGECPSHIAGTSGSSLSFHSTVINHYRMRGHSPFANLKSCCVPTKLRPMSMLYYDDGQNIIKKDIQNMIVEECGCS	–	–	–	14-R1 ELISA specificity [6]: <0.2; 23-R1 ELSIA specificity [7]: <0.2; 14 + 23-R1 ELISA specificity [8]: <0.2
rh-inhibin A: recombinant human inhibin A standard (protein) chain 1: STPLMSWPWSPSALRLLQRPPEEPAAHANCHRVALNISFQELGWERWIVYPPSFIFHYCHGGCGLHIPPNLSLPVPGAPPTPAQPYSLLPGAQPCCAALPGTMRPLHVRTTSDGGYSFKYETVPNLLTQHCACI chain 2: GLECDGKVNICCKKQFFVSFKDIGWNDWIIAPSGYHANYCEGECPSHIAGTSGSSLSFHSTVINHYRMRGHSPFANLKSCCVPTKLRPMSMLYYDDGQNIIKKDIQNMIVEECGCS	–	–	–	14-R1 ELISA specificity [6]: 100; 23-R1 ELSIA specificity [7]: 100; 14 + 23-R1 ELISA specificity [8]: 100
